Data from the NIST ThermoML archive (doi:10.1021/acs.jced.7b00712).

Conditions: Brillouin light scattering

CCCCCCCC [octane]
Conditions	speed of sound [m/s]
573.03 K, 7000 kPa, Liquid	341
573.05 K, 4000 kPa, Fluid (supercritical or subcritical phases)	228.1
573.37 K, 10000 kPa, Liquid	414
573.6 K, 12000 kPa, Liquid	454.4
573.69 K, 3500 kPa, Fluid (supercritical or subcritical phases)	189
573.8 K, 3000 kPa, Fluid (supercritical or subcritical phases)	135.4
573.9 K, 4500 kPa, Fluid (supercritical or subcritical phases)	250.4
575.02 K, 4000 kPa, Fluid (supercritical or subcritical phases)	217.1
575.57 K, 7000 kPa, Liquid	332.6
576.28 K, 10000 kPa, Liquid	408.7
576.53 K, 12000 kPa, Liquid	451.3
577.56 K, 3000 kPa, Fluid (supercritical or subcritical phases)	110.1
577.56 K, 4500 kPa, Fluid (supercritical or subcritical phases)	236.5
577.86 K, 3500 kPa, Fluid (supercritical or subcritical phases)	168.5
578.92 K, 7000 kPa, Liquid	323.1
579.05 K, 4000 kPa, Fluid (supercritical or subcritical phases)	198.3
579.36 K, 10000 kPa, Liquid	400.8
579.57 K, 12000 kPa, Liquid	444.1
582.19 K, 3000 kPa, Fluid (supercritical or subcritical phases)	86.9
582.61 K, 3500 kPa, Fluid (supercritical or subcritical phases)	144.9
583.28 K, 4500 kPa, Fluid (supercritical or subcritical phases)	215.8
583.76 K, 4000 kPa, Fluid (supercritical or subcritical phases)	181
584.07 K, 5000 kPa, Fluid (supercritical or subcritical phases)	239.2
584.52 K, 6000 kPa, Fluid (supercritical or subcritical phases)	280.5
584.97 K, 7000 kPa, Fluid (supercritical or subcritical phases)	314.5
585.27 K, 8000 kPa, Fluid (supercritical or subcritical phases)	351.8
585.51 K, 9000 kPa, Fluid (supercritical or subcritical phases)	367.9
585.79 K, 10000 kPa, Fluid (supercritical or subcritical phases)	392.1
585.88 K, 3000 kPa, Fluid (supercritical or subcritical phases)	88.4
586.85 K, 3500 kPa, Fluid (supercritical or subcritical phases)	124.2
587.72 K, 4500 kPa, Fluid (supercritical or subcritical phases)	200.5
588.01 K, 4000 kPa, Fluid (supercritical or subcritical phases)	166.2
588.39 K, 5000 kPa, Fluid (supercritical or subcritical phases)	226.1
588.83 K, 6000 kPa, Fluid (supercritical or subcritical phases)	270.2
589.14 K, 7000 kPa, Fluid (supercritical or subcritical phases)	302.3
589.41 K, 8000 kPa, Fluid (supercritical or subcritical phases)	337
589.67 K, 9000 kPa, Fluid (supercritical or subcritical phases)	358.4
589.68 K, 3000 kPa, Fluid (supercritical or subcritical phases)	93.7
589.93 K, 10000 kPa, Fluid (supercritical or subcritical phases)	385.1
591.09 K, 3500 kPa, Fluid (supercritical or subcritical phases)	108.6
591.69 K, 4500 kPa, Fluid (supercritical or subcritical phases)	186.7
593.97 K, 5000 kPa, Fluid (supercritical or subcritical phases)	206.7
594.05 K, 4000 kPa, Fluid (supercritical or subcritical phases)	140.2
594.09 K, 6000 kPa, Fluid (supercritical or subcritical phases)	255.1
594.28 K, 7000 kPa, Fluid (supercritical or subcritical phases)	290.8
594.52 K, 8000 kPa, Fluid (supercritical or subcritical phases)	322.3
594.74 K, 9000 kPa, Fluid (supercritical or subcritical phases)	346.5
594.9 K, 3000 kPa, Fluid (supercritical or subcritical phases)	102.1
594.94 K, 10000 kPa, Fluid (supercritical or subcritical phases)	374.1
596.02 K, 3500 kPa, Fluid (supercritical or subcritical phases)	100.7
597.28 K, 4500 kPa, Fluid (supercritical or subcritical phases)	170.5
598.63 K, 4000 kPa, Fluid (supercritical or subcritical phases)	125.5
599.12 K, 3000 kPa, Fluid (supercritical or subcritical phases)	108.9
599.17 K, 5000 kPa, Fluid (supercritical or subcritical phases)	192.7
599.18 K, 6000 kPa, Fluid (supercritical or subcritical phases)	241.2
599.55 K, 7000 kPa, Fluid (supercritical or subcritical phases)	276.6
599.72 K, 8000 kPa, Fluid (supercritical or subcritical phases)	309.6
599.76 K, 3500 kPa, Fluid (supercritical or subcritical phases)	95.6
600 K, 9000 kPa, Fluid (supercritical or subcritical phases)	334
601 K, 10000 kPa, Fluid (supercritical or subcritical phases)	358.1
601.1 K, 4500 kPa, Fluid (supercritical or subcritical phases)	159.7
602.47 K, 4000 kPa, Fluid (supercritical or subcritical phases)	114.3
603.01 K, 5000 kPa, Fluid (supercritical or subcritical phases)	180.4
603.24 K, 6000 kPa, Fluid (supercritical or subcritical phases)	226.2
603.85 K, 8000 kPa, Fluid (supercritical or subcritical phases)	299
604.21 K, 9000 kPa, Fluid (supercritical or subcritical phases)	324.3
605.28 K, 3000 kPa, Fluid (supercritical or subcritical phases)	116.6
605.73 K, 3500 kPa, Fluid (supercritical or subcritical phases)	94.8
606.87 K, 4000 kPa, Fluid (supercritical or subcritical phases)	111.1
607.11 K, 4500 kPa, Fluid (supercritical or subcritical phases)	144.8
607.61 K, 5000 kPa, Fluid (supercritical or subcritical phases)	169.3
607.97 K, 6000 kPa, Fluid (supercritical or subcritical phases)	215.3
608.4 K, 7000 kPa, Fluid (supercritical or subcritical phases)	254.8
608.86 K, 8000 kPa, Fluid (supercritical or subcritical phases)	285.3
609.24 K, 9000 kPa, Fluid (supercritical or subcritical phases)	312.3
609.54 K, 10000 kPa, Fluid (supercritical or subcritical phases)	340.1
610.17 K, 3000 kPa, Fluid (supercritical or subcritical phases)	124.3
610.28 K, 3500 kPa, Fluid (supercritical or subcritical phases)	103.2
611.94 K, 4500 kPa, Fluid (supercritical or subcritical phases)	133.3
612.5 K, 4000 kPa, Fluid (supercritical or subcritical phases)	108.7
613.58 K, 5000 kPa, Fluid (supercritical or subcritical phases)	153.7
613.8 K, 6000 kPa, Fluid (supercritical or subcritical phases)	204.8
614.19 K, 7000 kPa, Fluid (supercritical or subcritical phases)	242.3
614.65 K, 8000 kPa, Fluid (supercritical or subcritical phases)	273.2
614.76 K, 3000 kPa, Fluid (supercritical or subcritical phases)	129.2
614.83 K, 3500 kPa, Fluid (supercritical or subcritical phases)	111.5
615.18 K, 9000 kPa, Fluid (supercritical or subcritical phases)	302
616.02 K, 4500 kPa, Fluid (supercritical or subcritical phases)	128.5
616.33 K, 5000 kPa, Fluid (supercritical or subcritical phases)	148.3
617.46 K, 4000 kPa, Fluid (supercritical or subcritical phases)	110.4
619.43 K, 3000 kPa, Fluid (supercritical or subcritical phases)	134.1
619.62 K, 3500 kPa, Fluid (supercritical or subcritical phases)	119
619.76 K, 4500 kPa, Fluid (supercritical or subcritical phases)	125.2
620.31 K, 5000 kPa, Fluid (supercritical or subcritical phases)	144
622 K, 4000 kPa, Fluid (supercritical or subcritical phases)	112.6
623.42 K, 5000 kPa, Fluid (supercritical or subcritical phases)	141.6
623.5 K, 6000 kPa, Fluid (supercritical or subcritical phases)	184.3
623.84 K, 7000 kPa, Fluid (supercritical or subcritical phases)	224.1
624.5 K, 8000 kPa, Fluid (supercritical or subcritical phases)	254.1
624.55 K, 3500 kPa, Fluid (supercritical or subcritical phases)	124.9
624.66 K, 4000 kPa, Fluid (supercritical or subcritical phases)	114.2
624.87 K, 9000 kPa, Fluid (supercritical or subcritical phases)	283.1
624.89 K, 3000 kPa, Fluid (supercritical or subcritical phases)	139.4
625 K, 4500 kPa, Fluid (supercritical or subcritical phases)	125.1
625.29 K, 5000 kPa, Fluid (supercritical or subcritical phases)	139.2
628.69 K, 4000 kPa, Fluid (supercritical or subcritical phases)	120.4
629.77 K, 5000 kPa, Fluid (supercritical or subcritical phases)	137.3
629.96 K, 3500 kPa, Fluid (supercritical or subcritical phases)	132.1
630.15 K, 3000 kPa, Fluid (supercritical or subcritical phases)	144.3
630.45 K, 4500 kPa, Fluid (supercritical or subcritical phases)	126.6
632.06 K, 4000 kPa, Fluid (supercritical or subcritical phases)	124.2
633.13 K, 5000 kPa, Fluid (supercritical or subcritical phases)	137.6
633.62 K, 6000 kPa, Fluid (supercritical or subcritical phases)	169.8
633.94 K, 7000 kPa, Fluid (supercritical or subcritical phases)	204.8
634.48 K, 8000 kPa, Fluid (supercritical or subcritical phases)	240.7
635.95 K, 3000 kPa, Fluid (supercritical or subcritical phases)	149.3
635.97 K, 3500 kPa, Fluid (supercritical or subcritical phases)	140
636.07 K, 4000 kPa, Fluid (supercritical or subcritical phases)	131.6
636.31 K, 4500 kPa, Fluid (supercritical or subcritical phases)	132
637.58 K, 5000 kPa, Fluid (supercritical or subcritical phases)	140.4
638.73 K, 3500 kPa, Fluid (supercritical or subcritical phases)	142.4
638.9 K, 3000 kPa, Fluid (supercritical or subcritical phases)	152.4
639.03 K, 4500 kPa, Fluid (supercritical or subcritical phases)	134.5
642.09 K, 5000 kPa, Fluid (supercritical or subcritical phases)	144.1
642.28 K, 6000 kPa, Fluid (supercritical or subcritical phases)	160.5
642.66 K, 4000 kPa, Fluid (supercritical or subcritical phases)	142.7
642.75 K, 7000 kPa, Fluid (supercritical or subcritical phases)	194.7
643.16 K, 8000 kPa, Fluid (supercritical or subcritical phases)	229.4
